# From the kinase profiling compilation of Christmann-Franck et al. (2016)
# Tests used:
# Test in all cases: KINOMEscan competition binding
# PRKACA (human) = PRKACA (human) (UniProt P17612); settings: compound 1.0 µM
# RIOK3 (human) = RIOK3 (human) (UniProt O14730); settings: compound 1.0 µM
# CDK17 (human) = CDK17 (human) (UniProt Q00537); settings: compound 1.0 µM
# MELK (human) = MELK (human) (UniProt Q14680); settings: compound 1.0 µM
# TLK2 (human) = TLK2 (human) (UniProt Q86UE8); settings: compound 1.0 µM
# MAP3K12 (human) = MAP3K12 (human) (UniProt Q12852); settings: compound 1.0 µM
# STK17B (human) = STK17B (human) (UniProt O94768); settings: compound 1.0 µM
# [1] = test system: PIK3CA (human), P42336 [H1047L]; settings: compound 1.0 µM
# FGFR4 (human) = FGFR4 (human) (UniProt P22455); settings: compound 1.0 µM
# STK17A (human) = STK17A (human) (UniProt Q9UEE5)
# BMP2K (human) = BMP2K (human) (UniProt Q9NSY1)
# CDK5 (human) = CDK5 (human) (UniProt Q00535); settings: compound 1.0 µM
# STK3 (human) = STK3 (human) (UniProt Q13188); settings: compound 1.0 µM
# TNIK (human) = TNIK (human) (UniProt Q9UKE5); settings: compound 1.0 µM
# PRKD1 (human) = PRKD1 (human) (UniProt Q15139); settings: compound 1.0 µM
# CHEK2 (human) = CHEK2 (human) (UniProt O96017); settings: compound 1.0 µM
# LATS1 (human) = LATS1 (human) (UniProt O95835); settings: compound 1.0 µM
# [2] = test system: PIK3CA (human), P42336 [E542K]; settings: compound 1.0 µM
# ACVR2B (human) = ACVR2B (human) (UniProt Q13705); settings: compound 1.0 µM
# RPS6KA2 KD2 (human) = RPS6KA2 KD2 (human) (UniProt Q15349); settings: compound 1.0 µM
# PRKD2 (human) = PRKD2 (human) (UniProt Q9BZL6); settings: compound 1.0 µM
# LTK (human) = LTK (human) (UniProt P29376); settings: compound 1.0 µM
# MAPK10 (human) = MAPK10 (human) (UniProt P53779); settings: compound 1.0 µM
# KIT (human) = KIT (human) (UniProt P10721); settings: compound 1.0 µM
# NEK9 (human) = NEK9 (human) (UniProt Q8TD19); settings: compound 1.0 µM
# SBK1 (human) = SBK1 (human) (UniProt Q52WX2); settings: compound 1.0 µM
# HIPK2 (human) = HIPK2 (human) (UniProt Q9H2X6); settings: compound 1.0 µM
# [3] = test system: EGFR (human), P00533 [L861Q]; settings: compound 1.0 µM
# PAK1 (human) = PAK1 (human) (UniProt Q13153); settings: compound 1.0 µM
# [4] = test system: EGFR (human), P00533 [T790M/L858R]; settings: compound 1.0 µM
# EPHB3 (human) = EPHB3 (human) (UniProt P54753); settings: compound 1.0 µM
# CSNK1G3 (human) = CSNK1G3 (human) (UniProt Q9Y6M4); settings: compound 1.0 µM
# NEK1 (human) = NEK1 (human) (UniProt Q96PY6); settings: compound 1.0 µM
# DCLK1 (human) = DCLK1 (human) (UniProt O15075); settings: compound 1.0 µM
# [5] = test system: KIT (human), P10721 [L576P]; settings: compound 1.0 µM
# MARK2 (human) = MARK2 (human) (UniProt Q7KZI7); settings: compound 1.0 µM
# CSNK1G2 (human) = CSNK1G2 (human) (UniProt P78368); settings: compound 1.0 µM
# BMPR1B (human) = BMPR1B (human) (UniProt O00238); settings: compound 1.0 µM
# PRKCH (human) = PRKCH (human) (UniProt P24723); settings: compound 1.0 µM
# PIM1 (human) = PIM1 (human) (UniProt P11309); settings: compound 1.0 µM
# CDK8 (human) = CDK8 (human) (UniProt P49336); settings: compound 1.0 µM
# EPHB1 (human) = EPHB1 (human) (UniProt P54762); settings: compound 1.0 µM
# Chain of BMP2K (human) (Q9NSY1 whole entry, looked up): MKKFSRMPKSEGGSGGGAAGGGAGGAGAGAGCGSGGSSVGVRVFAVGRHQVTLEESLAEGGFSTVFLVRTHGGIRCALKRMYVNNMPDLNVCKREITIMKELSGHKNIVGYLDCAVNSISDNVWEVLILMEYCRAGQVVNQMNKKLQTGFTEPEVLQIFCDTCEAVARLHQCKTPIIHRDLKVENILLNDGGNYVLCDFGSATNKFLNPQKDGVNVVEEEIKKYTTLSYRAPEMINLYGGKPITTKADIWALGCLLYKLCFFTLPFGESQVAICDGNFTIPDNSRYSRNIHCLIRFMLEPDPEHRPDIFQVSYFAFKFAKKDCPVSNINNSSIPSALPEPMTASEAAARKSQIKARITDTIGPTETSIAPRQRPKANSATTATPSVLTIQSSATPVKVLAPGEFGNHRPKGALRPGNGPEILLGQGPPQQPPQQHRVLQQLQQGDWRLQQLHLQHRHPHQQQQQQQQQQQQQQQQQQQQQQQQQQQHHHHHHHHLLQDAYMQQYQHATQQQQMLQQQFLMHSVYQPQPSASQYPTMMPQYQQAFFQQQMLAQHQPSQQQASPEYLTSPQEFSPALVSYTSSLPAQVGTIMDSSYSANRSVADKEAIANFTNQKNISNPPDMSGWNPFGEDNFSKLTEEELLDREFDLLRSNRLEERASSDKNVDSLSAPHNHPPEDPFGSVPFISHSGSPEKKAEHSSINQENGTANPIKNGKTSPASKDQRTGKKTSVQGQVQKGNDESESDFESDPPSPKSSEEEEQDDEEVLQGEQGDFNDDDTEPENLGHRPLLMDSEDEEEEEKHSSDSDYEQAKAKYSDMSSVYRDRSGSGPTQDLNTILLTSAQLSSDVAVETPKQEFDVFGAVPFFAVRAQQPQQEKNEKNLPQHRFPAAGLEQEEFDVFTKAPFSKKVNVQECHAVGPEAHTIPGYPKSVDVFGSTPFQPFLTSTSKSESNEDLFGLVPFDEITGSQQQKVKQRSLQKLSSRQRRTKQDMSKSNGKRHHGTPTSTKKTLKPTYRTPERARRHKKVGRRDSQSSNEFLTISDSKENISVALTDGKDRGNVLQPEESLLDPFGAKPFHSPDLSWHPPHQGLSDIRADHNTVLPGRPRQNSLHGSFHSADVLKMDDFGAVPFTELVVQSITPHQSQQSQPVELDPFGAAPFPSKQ
# Chain of STK17A (human) (Q9UEE5 whole entry, looked up): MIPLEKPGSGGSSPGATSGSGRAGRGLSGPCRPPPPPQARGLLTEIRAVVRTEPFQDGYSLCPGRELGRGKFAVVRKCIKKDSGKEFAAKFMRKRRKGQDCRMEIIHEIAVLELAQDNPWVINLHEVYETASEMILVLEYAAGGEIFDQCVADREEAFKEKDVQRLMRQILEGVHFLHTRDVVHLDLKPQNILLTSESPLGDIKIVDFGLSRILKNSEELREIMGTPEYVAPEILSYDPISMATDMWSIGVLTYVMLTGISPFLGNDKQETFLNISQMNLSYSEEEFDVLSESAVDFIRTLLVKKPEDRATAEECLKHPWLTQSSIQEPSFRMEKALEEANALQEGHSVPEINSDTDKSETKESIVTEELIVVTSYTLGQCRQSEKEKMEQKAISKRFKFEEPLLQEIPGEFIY
# Chain of STK17B (human) (O94768 whole entry, looked up): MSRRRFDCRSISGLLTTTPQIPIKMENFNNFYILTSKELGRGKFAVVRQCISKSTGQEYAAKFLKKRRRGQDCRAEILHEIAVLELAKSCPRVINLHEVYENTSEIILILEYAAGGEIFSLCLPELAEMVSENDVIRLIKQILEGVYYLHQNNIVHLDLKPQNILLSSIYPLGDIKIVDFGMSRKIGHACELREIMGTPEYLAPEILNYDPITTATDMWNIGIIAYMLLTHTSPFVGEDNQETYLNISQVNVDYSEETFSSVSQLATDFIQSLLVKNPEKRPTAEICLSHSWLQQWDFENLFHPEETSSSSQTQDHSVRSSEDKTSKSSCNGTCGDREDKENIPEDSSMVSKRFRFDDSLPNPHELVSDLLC
# Chain of PRKCH (human) (P24723 whole entry, looked up): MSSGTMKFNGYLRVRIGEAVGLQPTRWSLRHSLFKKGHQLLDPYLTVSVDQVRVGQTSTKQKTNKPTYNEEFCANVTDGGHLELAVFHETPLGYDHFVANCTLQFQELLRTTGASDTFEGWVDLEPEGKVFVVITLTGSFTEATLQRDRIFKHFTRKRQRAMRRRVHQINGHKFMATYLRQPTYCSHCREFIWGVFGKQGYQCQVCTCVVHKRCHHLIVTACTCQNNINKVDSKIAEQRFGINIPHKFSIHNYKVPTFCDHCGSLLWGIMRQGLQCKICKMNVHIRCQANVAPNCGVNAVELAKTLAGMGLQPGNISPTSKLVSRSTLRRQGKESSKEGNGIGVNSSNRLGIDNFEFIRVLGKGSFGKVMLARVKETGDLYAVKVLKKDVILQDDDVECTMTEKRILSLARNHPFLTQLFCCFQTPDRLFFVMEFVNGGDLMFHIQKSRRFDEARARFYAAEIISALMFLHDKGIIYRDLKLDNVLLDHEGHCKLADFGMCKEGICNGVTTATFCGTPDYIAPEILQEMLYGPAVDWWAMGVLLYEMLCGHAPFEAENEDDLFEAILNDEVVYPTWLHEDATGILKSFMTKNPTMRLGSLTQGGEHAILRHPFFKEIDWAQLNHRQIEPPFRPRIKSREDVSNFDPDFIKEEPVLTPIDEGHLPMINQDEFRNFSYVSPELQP
# Chain of PRKD2 (human) (Q9BZL6 whole entry, looked up): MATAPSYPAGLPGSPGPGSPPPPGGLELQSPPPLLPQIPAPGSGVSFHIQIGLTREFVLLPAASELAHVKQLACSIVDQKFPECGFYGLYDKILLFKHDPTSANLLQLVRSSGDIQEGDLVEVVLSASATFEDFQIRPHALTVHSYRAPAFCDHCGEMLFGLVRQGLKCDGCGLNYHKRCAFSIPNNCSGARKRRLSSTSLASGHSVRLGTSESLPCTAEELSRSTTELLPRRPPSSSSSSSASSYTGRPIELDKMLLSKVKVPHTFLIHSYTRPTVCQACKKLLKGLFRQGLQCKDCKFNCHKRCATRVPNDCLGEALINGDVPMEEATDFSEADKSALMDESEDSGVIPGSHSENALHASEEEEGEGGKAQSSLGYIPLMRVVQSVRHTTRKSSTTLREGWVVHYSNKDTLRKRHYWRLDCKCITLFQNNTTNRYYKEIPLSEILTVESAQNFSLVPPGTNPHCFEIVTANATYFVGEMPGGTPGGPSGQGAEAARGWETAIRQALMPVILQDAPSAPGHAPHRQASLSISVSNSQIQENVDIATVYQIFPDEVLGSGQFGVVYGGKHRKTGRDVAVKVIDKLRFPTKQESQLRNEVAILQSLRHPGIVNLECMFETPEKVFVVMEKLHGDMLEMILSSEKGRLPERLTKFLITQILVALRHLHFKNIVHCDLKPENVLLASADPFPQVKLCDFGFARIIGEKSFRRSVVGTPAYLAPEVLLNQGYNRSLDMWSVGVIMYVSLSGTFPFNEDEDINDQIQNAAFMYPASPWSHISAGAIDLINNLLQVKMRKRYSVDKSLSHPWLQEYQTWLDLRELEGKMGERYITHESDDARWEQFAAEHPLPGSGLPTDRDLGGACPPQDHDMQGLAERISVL
# Chain of PRKD1 (human) (Q15139 whole entry, looked up): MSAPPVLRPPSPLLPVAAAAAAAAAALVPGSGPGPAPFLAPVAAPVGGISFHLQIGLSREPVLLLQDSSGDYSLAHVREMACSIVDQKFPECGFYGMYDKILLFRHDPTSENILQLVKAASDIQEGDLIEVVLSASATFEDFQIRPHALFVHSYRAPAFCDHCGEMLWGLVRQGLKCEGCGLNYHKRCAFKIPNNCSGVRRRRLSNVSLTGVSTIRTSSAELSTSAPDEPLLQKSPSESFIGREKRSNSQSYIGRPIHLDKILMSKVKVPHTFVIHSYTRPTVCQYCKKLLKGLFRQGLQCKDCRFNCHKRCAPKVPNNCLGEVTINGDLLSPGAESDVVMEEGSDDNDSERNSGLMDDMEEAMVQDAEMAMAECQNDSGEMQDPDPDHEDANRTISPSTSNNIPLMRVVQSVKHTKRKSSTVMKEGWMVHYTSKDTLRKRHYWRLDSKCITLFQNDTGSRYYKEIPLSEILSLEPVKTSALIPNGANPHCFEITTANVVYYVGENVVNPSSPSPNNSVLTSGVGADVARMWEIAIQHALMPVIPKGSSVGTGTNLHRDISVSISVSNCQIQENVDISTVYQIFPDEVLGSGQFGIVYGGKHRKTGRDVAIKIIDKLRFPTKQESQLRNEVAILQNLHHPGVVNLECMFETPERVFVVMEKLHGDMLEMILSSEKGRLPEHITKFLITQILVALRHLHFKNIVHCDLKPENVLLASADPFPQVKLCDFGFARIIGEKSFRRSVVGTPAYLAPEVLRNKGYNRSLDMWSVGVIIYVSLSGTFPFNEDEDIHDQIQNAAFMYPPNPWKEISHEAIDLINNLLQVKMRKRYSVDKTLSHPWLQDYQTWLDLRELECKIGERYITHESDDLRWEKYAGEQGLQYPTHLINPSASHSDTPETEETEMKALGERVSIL
# Chain of MELK (human) (Q14680 whole entry, looked up): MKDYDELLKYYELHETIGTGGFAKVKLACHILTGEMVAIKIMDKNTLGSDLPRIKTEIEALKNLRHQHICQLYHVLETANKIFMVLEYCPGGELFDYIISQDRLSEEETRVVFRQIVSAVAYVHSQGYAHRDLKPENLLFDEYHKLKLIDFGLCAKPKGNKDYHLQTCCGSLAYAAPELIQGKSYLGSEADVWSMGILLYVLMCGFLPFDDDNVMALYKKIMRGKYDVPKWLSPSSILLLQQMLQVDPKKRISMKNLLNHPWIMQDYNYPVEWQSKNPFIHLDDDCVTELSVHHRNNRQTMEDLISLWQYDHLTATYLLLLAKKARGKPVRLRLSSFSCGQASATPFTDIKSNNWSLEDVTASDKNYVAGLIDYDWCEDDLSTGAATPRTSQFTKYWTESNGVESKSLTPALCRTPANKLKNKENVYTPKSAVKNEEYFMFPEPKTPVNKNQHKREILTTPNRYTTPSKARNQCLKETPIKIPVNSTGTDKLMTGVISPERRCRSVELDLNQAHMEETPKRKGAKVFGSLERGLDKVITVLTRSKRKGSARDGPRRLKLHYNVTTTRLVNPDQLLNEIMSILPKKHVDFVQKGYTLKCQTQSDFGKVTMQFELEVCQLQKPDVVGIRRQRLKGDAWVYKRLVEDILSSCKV
structure (smiles),measurement,setting,value
CN(C)C/C=C/C(=O)Nc1cccc(C(=O)Nc2ccc(Nc3nccc(-c4cccnc4)n3)cc2)c1,"kinase still bound, per cent of control",PRKACA (human),83%
same,"kinase still bound, per cent of control",RIOK3 (human),8.3%
same,"kinase still bound, per cent of control",CDK17 (human),84%
same,"kinase still bound, per cent of control",MELK (human),30%
same,"kinase still bound, per cent of control",TLK2 (human),92%
same,"kinase still bound, per cent of control",MAP3K12 (human),72%
same,"kinase still bound, per cent of control",STK17B (human),24%
same,"kinase still bound, per cent of control",[1],100%
same,"kinase still bound, per cent of control",FGFR4 (human),100%
same,Kd,STK17A (human),100 nM
same,"kinase still bound, per cent of control",STK17A (human); compound 1.0 µM,1.3%
same,Kd,BMP2K (human),190 nM
same,"kinase still bound, per cent of control",BMP2K (human); compound 1.0 µM,3.8%
same,"kinase still bound, per cent of control",CDK5 (human),89%
same,"kinase still bound, per cent of control",STK3 (human),87%
same,"kinase still bound, per cent of control",TNIK (human),40%
same,"kinase still bound, per cent of control",PRKD1 (human),100%
same,"kinase still bound, per cent of control",CHEK2 (human),100%
same,"kinase still bound, per cent of control",LATS1 (human),100%
same,"kinase still bound, per cent of control",[2],82%
same,"kinase still bound, per cent of control",ACVR2B (human),56%
same,"kinase still bound, per cent of control",RPS6KA2 KD2 (human),92%
same,"kinase still bound, per cent of control",PRKD2 (human),100%
same,"kinase still bound, per cent of control",LTK (human),100%
same,"kinase still bound, per cent of control",MAPK10 (human),0%
same,"kinase still bound, per cent of control",KIT (human),2.4%
same,"kinase still bound, per cent of control",NEK9 (human),48%
same,"kinase still bound, per cent of control",SBK1 (human),66%
same,"kinase still bound, per cent of control",HIPK2 (human),9.2%
same,"kinase still bound, per cent of control",[3],84%
same,"kinase still bound, per cent of control",PAK1 (human),69%
same,"kinase still bound, per cent of control",[4],100%
same,"kinase still bound, per cent of control",EPHB3 (human),96%
same,"kinase still bound, per cent of control",CSNK1G3 (human),66%
same,"kinase still bound, per cent of control",NEK1 (human),77%
same,"kinase still bound, per cent of control",DCLK1 (human),96%
same,"kinase still bound, per cent of control",[5],2.2%
same,"kinase still bound, per cent of control",MARK2 (human),69%
same,"kinase still bound, per cent of control",CSNK1G2 (human),12%
same,"kinase still bound, per cent of control",BMPR1B (human),43%
same,"kinase still bound, per cent of control",PRKCH (human),84%
same,"kinase still bound, per cent of control",PIM1 (human),94%
same,"kinase still bound, per cent of control",CDK8 (human),68%
same,"kinase still bound, per cent of control",EPHB1 (human),92%
